{
  "source": "paper PMC12220852",
  "about": "“An adamantane‐based ligand as a novel chemical tool for thermosensory TRPM8 channel therapeutic modulation” (The Febs Journal, 2025)",
  "key": {"[1]": {"molecular_target": "T1, recombinant human TRPM8 stably expressed in HEK293 cells (hTRPM8) (Homo sapiens, UniProt Q7Z2W7)", "T1 construct": "expressed in transfected cells", "T1 sequence (Q7Z2W7 whole entry)": "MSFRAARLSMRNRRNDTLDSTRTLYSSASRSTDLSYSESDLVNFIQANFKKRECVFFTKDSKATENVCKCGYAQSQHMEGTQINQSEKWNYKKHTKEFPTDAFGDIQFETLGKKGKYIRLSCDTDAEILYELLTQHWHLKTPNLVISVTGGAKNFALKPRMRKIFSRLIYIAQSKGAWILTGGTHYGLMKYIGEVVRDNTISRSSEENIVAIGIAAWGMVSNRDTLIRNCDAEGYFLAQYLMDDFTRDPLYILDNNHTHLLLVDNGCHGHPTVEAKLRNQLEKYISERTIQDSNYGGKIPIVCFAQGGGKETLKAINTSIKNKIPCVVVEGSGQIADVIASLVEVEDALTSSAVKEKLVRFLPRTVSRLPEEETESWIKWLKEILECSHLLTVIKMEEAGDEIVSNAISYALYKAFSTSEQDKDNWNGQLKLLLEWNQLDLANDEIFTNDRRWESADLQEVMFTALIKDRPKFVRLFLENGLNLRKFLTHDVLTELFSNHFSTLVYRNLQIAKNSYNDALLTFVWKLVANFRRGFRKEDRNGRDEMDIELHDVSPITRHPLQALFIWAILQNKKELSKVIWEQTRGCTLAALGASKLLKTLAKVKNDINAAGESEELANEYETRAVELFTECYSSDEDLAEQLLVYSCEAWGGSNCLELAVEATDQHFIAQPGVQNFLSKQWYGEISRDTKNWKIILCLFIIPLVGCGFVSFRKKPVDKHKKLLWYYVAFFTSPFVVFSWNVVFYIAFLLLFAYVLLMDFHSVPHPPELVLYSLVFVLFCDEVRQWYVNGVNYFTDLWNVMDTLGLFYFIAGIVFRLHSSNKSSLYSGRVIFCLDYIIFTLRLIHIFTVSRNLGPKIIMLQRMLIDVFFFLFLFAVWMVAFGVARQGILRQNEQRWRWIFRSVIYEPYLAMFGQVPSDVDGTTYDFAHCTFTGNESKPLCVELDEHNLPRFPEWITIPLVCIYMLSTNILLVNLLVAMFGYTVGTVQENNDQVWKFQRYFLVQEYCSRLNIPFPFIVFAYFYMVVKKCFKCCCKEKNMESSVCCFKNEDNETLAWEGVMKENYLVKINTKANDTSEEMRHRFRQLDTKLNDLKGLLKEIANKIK", "assay": "Ca2+ microfluorimetry screen for agonist/antagonist activity in hTRPM8-HEK293 cells", "assay_type": "cell-based", "details": "agonists vs WS-12, antagonists vs WS-12 response, read-out: Efficacy (percentage of maximal activation or blockade)"}, "[2]": {"molecular_target": "T2, hTRPM8 (Homo sapiens, UniProt Q7Z2W7)", "T2 construct": "expressed in transfected cells; host or cells: HEK293 (transient, Lipofectamine 3000)", "T2 sequence (Q7Z2W7 whole entry)": "as above", "assay": "Whole-cell patch-clamp of WS-12-evoked currents in HEK293 cells expressing hTRPM8", "assay_type": "cell-based", "excerpt": "We first used patch‐clamp to investigate the potency and blockade mechanism of compound 23 inhibiting WS‐12 evoked ionic currents in hTRPM8‐HEK293 cells. […] This blockade activity was reversible as virtually all WS‐12‐evoked ionic current could be recovered upon washout (Fig. 3A, bottom panel), thus preventing a use‐dependent side effect.\nTo unveil the underlying mechanism of channel blockade (competitive vs noncompetitive) we evaluated the effect of the α‐acyloxy carboxamide 23 on WS‐12 activating potency. For this purpose, we obtained the WS‐12 dose response in the absence and presence of 80 nM compound 23 (corresponding to its IC50 value).\nFor this purpose, we run 100 ms voltage ramps from −120 to 120 mV activated by WS‐12 in the absence and presence of 80 nM α‐acyloxy carboxamide 23.\nRecording through patch‐clamp techniques was performed on HEK293 cells cultured in DMEM GlutaMax with 10% FBS and 1% P/S. The cell lines were authenticated following the standardization of STR Profiling guidelines (ANSI/ATCC ASN‐0002‐2022) using the CLA Identifier Plus PCR Amplification Kit (Thermo Fisher‐A44660) to analyze 16 highly variant human STRs. The cells were confirmed to be mycoplasma‐free. These cells were transiently transfected with plasmids encoding hTRPV1, hTRPM8, or hTRPA1 using Lipofectamine 3000. Transfected cells were seeded on 12 mm Ø glass coverslips treated with poly‐L‐lysine solution and recorded 2 days post‐transfection. The intracellular pipette solution included (in mM) 150 NaCl, 3 MgCl2, 5 EGTA, and 10 HEPES, pH 7.2 with CsOH, while the extracellular solution contained (in mM) 150 NaCl, 6 CsCl, 1 MgCl2, 1.5 CaCl2, 10 glucose, and 10 HEPES, pH 7.4 with NaOH. An EPC‐10 amplifier with Patchmaster software was used in whole‐cell experiments. Patch pipettes, created from thin‐wall borosilicate capillary glass tubing, were pulled with a Micropipette puller to a final resistance of 2–8 MΩ when filled with the internal solution. Recordings were acquired at 10 kHz and low‐pass filtered at 3 kHz, discarding recordings with leak currents > 200pA or series resistance > 20 MΩ. In voltage‐clamp recordings, cells were held at a constant potential, and the application of modulators was carried out using a gravity‐driven perfusion system. Total currents were normalized to the first current peak evoked by the activating stimuli. To study the effect of compound 23 on TRPM8 voltage dependence, a voltage step protocol from −120 to 120 mV was used with 100 ms steps of 20 mV from a holding potential at 0 mV. Leak currents were not subtracted, and conductance was calculated using the equation: G = I/(V − V r), where I is the measured ionic current, V is the applied voltage, and V r is the reversal potential that for the ionic conditions used was set to 0 mV.\nDose–response relationships for WS‐12 channel activation were normalized to the response of the channel to a saturating concentration of the agonist. Similarly, dose–response curves for blockade activity were normalized with respect to the response in the absence of the blocker. The experimental data were fitted to the Hill equation: Y=Bottom+Top‐Bottom/(1+10^ligand−LogIC50orLogEC50) using PRISM 9 software. Top was fixed to 100, as the unblocked response or the maximal response for WS‐12."}, "[3]": {"assay": "Metabolic stability in mouse plasma", "assay_type": "in vitro ADME", "details": "after 1 h at 37 °C, 100 μM substrate", "procedure": "Because of the lack of systemic activity of compound 23, we evaluated the in vitro plasmatic and hepatic metabolic stability. To this aim, compound 23 was exposed to mouse plasma and mouse liver microsome (MLM) fractions, and the residual substrate was measured after 1 h. Under these conditions, the residual substrate was about 97% and 90% in plasma and microsomes, respectively, denoting that this molecule suffers from mild hydrolysis of the ester group.\nThe standard incubation mixture (100 μL final volume) was carried out by dissolving the tested substrate (100 μM) in DMSO (5% final volume) in preincubated plasma at 37 °C. The mixture was shaken for 60 min at 37 °C. Control incubations were carried out without substrate. Each incubation was stopped by addition of 200 μL of ice‐cold acetonitrile, vortexed, and centrifuged at 13 000 r.p.m. for 10 min. The supernatants were analyzed by LC‐UV [68].\nThe metabolic stability of the compound 23 was determined in vitro by measuring the residual peak area after incubation by LC‐UV analysis. Samples were further processed by LC‐HRMS equipment for metabolite profiling. Raw data files were processed using both XCALIBUR® and COMPOUND DISCOVERER 3.2® software (Thermo Scientific) using a customized workflow for the detection and identification of the expected and unknown metabolites (Fig. S80)."}},
  "note": "Where “and” joins values, the source holds several entries; their conditions need not be identical. Equal values may be shown once.",
  "data": [
    {"molecule": "O=C(COC(=O)c1ccccc1-c1ccccc1)NC12CC3CC(CC(C3)C1)C2", "note": "[Compound 23, 2‐((3S,5S,7S)‐adamantan‐1‐ylamino)‐2‐oxoethyl [1,1′‐biphenyl]‐2‐carboxylate]", "values": [
      {"measurement": "Emax", "setting": "[1]", "result": 100, "unit": "%"},
      {"measurement": "reduction of WS‐12 evoked inward current", "setting": "[2]; 1 μM compound, 1 μM WS-12, holding potential −60 mV", "result": "≥ 75", "unit": "%"},
      {"measurement": "Schild plot slope", "setting": "[2]; WS12 vs compound 23 at 0.02, 0.08, 0.1, 0.5 μM", "result": "1.003 and 1.0"},
      {"measurement": "reversibility of blockade upon washout", "setting": "[2]; WS-12-evoked current recovered after washout", "result": "reversible"},
      {"measurement": "mechanism of channel blockade", "setting": "[2]; WS-12 dose-response shift and Schild plot", "result": "competitive"},
      {"measurement": "Hill coefficient of hTRPM8 current blockade", "setting": "[2]; patch-clamp dose-response, −60 mV", "result": 1},
      {"measurement": "IC50", "setting": "[2]; patch-clamp, WS-12 evoked current, −60 mV, N = 3, n = 10, read-out: IC50 of hTRPM8 current blockade", "result": "80 ± 70", "unit": "nM"},
      {"measurement": "voltage dependency of channel blockade", "setting": "[2]; voltage steps −120 to 120 mV, 0.08 μM compound 23, 10 μM AMTB", "result": "not voltage dependent"},
      {"measurement": "residual substrate in mouse plasma", "setting": "[3]", "result": "about 97%"}
    ]}
  ]
}
